Like-named read-outs stand apart in the source and are kept apart here.
Target: His-Tagged hOGA (human O-GlcNAcase) (Homo sapiens (Human), UniProt O60502)
Experiment: Human O-GlcNAcase enzyme inhibition assay (Example B01)
Type: biochemical
Details: for OGA inhibitor activity (in words): measured according to Example B01
[1] = OGA enzyme inhibition assay, activity range classes defined in μM, read-out: OGA IC50
[2] = OGA IC50 (M), OGA enzyme inhibition assay, activity range classes defined in μM

His-Tagged hOGA (human O-GlcNAcase), sequence (O60502 whole entry): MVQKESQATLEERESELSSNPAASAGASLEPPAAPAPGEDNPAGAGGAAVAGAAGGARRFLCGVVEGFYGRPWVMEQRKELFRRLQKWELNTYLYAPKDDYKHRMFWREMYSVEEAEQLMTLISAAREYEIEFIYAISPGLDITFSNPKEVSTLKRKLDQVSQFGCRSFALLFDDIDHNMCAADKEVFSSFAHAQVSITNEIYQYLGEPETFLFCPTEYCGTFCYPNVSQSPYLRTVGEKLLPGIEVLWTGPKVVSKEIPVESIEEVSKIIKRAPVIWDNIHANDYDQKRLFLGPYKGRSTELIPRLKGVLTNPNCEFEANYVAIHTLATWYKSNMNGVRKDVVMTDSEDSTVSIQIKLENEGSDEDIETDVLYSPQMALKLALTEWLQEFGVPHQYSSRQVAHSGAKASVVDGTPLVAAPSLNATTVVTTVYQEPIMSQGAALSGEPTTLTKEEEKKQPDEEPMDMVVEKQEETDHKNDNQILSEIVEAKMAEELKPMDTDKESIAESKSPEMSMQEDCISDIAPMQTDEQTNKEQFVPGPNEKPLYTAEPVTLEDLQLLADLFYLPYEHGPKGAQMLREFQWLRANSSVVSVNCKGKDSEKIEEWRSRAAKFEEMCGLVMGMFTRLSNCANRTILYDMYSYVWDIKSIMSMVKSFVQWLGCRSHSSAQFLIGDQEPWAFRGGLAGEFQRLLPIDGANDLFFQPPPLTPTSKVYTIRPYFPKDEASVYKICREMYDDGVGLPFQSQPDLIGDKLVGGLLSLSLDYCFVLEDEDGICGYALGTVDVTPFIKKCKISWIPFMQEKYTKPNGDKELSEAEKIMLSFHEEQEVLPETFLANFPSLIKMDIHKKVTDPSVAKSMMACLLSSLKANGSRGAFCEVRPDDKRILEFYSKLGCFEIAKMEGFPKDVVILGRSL

IC50 [1] [µM] | SMILES | also measured
< 0.05 | CC(=O)Nc1cnc(N2CCN(C(C)c3ccc4nsnc4c3)CC2)nc1 (racemic) [Example 122, N-(2-(4-(1-(benzo[c][1,2,5]thiadiazol-5-yl)ethyl)piperazin-1-yl)pyrimidin-5-yl)acetamide] | –
< 0.05 | CC(=O)Nc1nnc(N2CCN(C(C)c3ccc4nsnc4c3)CC2)s1 (racemic) [Example 123, N-(5-(4-(1-(benzo[c][1,2,5]thiadiazol-5-yl)ethyl)piperazin-1-yl)-1,3,4-thiadiazol-2-yl)acetamide] | –
1 to 10 | CC(=O)Nc1nnc(N2CCN(C(C)c3ccc4cc(Cl)cnc4c3)CC2)s1 (racemic) [Example 124] | –
1 to 10 | CC(=O)Nc1cnc(N2CCN(C(C)c3ccc4cc(Cl)cnc4c3)CC2)nc1 (racemic) [Example 125, N-(2-(4-(1-(3-chloroquinolin-7-yl)ethyl)piperazin-1-yl)pyrimidin-5-yl)acetamide] | –
0.2 to 1 | CC(=O)Nc1cnc(N2CCN(C(C)c3ccc4c(c3)OCCCO4)CC2)nc1 (racemic) [Example 126, N-(2-(4-(1-(3,4-dihydro-2H-benzo[b][1,4]dioxepin-7-yl)ethyl)piperazin-1-yl)pyrimidin-5-yl)acetamide] | –
1 to 10 | CC(=O)Nc1cnc(N2CCN(C(C)c3cccc4cccnc34)CC2)nc1 (racemic) [Example 127, N-(2-(4-(1-(quinolin-8-yl)ethyl)piperazin-1-yl)pyrimidin-5-yl)acetamide] | –
< 0.05 | CC(=O)Nc1nnc(N2CCN(C(C)c3ccc4c(c3)OCC4)CC2)s1 (racemic) [Example 128, N-(5-(4-(1-(2,3-dihydrobenzofuran-6-yl)ethyl)piperazin-1-yl)-1,3,4-thiadiazol-2-yl)acetamide] | OGA inhibitor activity (in words): very potent OGA inhibitors
< 0.05 | CC(=O)Nc1cnc(N2CCN(C(C)c3ccc4c(c3)OCC4)CC2)nc1 (racemic) [Example 129, N-(2-(4-(1-(2,3-dihydrobenzofuran-6-yl)ethyl)piperazin-1-yl)pyrimidin-5-yl)acetamide] | OGA inhibitor activity (in words): very potent OGA inhibitors
0.2 to 1 | CC(c1ccc2c(c1)OCO2)N1CCN(c2nc3ccccc3s2)CC1 (racemic) [Example 130, 2-(4-(1-(benzo[d][1,3]dioxol-5-yl)ethyl)piperazin-1-yl)benzo[d]thiazole] | –
1 to 10 | CC(c1ccc2nccnc2c1)N1CCN(c2nc3ccccc3s2)CC1 (racemic) [Example 135, 2-(4-(1-(quinoxalin-6-yl)ethyl)piperazin-1-yl)benzo[d]thiazole] | –
– | CC(c1ccc2nccnc2c1)N1CCN(c2nc3cnccc3s2)CC1 (racemic) [Example 140, 2-(4-(1-(quinoxalin-6-yl)ethyl)piperazin-1-yl)thiazolo[4,5-c]pyridine] | IC50 [2]: 0.2 to 1 µM
– | Cc1csc(N2CCN(C(C)c3ccc4c(c3)OCO4)CC2)n1 (racemic) [Example 144, 1-[1-(1,3-benzodioxol-5-yl)ethyl]-4-(4-methyl-2-thiazolyl)-piperazine] | IC50 [2]: 0.2 to 1 µM
0.05 to 0.2 | CC(c1ccc2c(c1)OCO2)N1CCN(c2nc3c(s2)C(=O)NCC3)CC1 (racemic) [Example 148, 2-(4-(1-(benzo[d][1,3]dioxol-5-yl)ethyl)piperazin-1-yl)-6,7-dihydrothiazolo[5,4-c]pyridin-4(5H)-one] | –
0.2 to 1 | CC(c1ccc2nccnc2c1)N1CCN(c2ccc(C(F)(F)F)cn2)CC1 (racemic) [Example 165, 6-(1-(4-(5-(trifluoromethyl)pyridin-2-yl)piperazin-1-yl)ethyl)quinoxaline] | –
< 0.05 | CC(=O)Nc1cnc(N2CCN(C(C)c3ccc4sc(C)nc4c3)CC2)nc1 (racemic) [Example 169, N-(2-(4-(1-(2-methylbenzo[d]thiazol-5-yl)ethyl)piperazin-1-yl)pyrimidin-5-yl)acetamide] | –
< 0.05 | CC(=O)Nc1nnc(N2CCN(C(C)c3ccc4sc(C)nc4c3)CC2)s1 (racemic) [Example 170, N-(5-(4-(1-(2-methylbenzo[d]thiazol-5-yl)ethyl)piperazin-1-yl)-1,3,4-thiadiazol-2-yl)acetamide] | –
0.05 to 0.2 | CC(c1ccc2nccnc2c1)N1CCN(c2ncc(F)cn2)CC1 (racemic) [Example 172, 6-(1-(4-(5-fluoropyrimidin-2-yl)piperazin-1-yl)ethyl)quinoxaline] | –
1 to 10 | CC(=O)Nc1cnc(N2CCN(C(C)c3ccc4ncsc4c3)CC2)nc1 (racemic) [Example 174, N-(2-(4-(1-(benzo[d]thiazol-6-yl)ethyl)piperazin-1-yl)pyrimidin-5-yl)acetamide] | –
0.2 to 1 | CC(c1ccc2nccnc2c1)N1CCN(c2nc3c(s2)C(=O)NCC3)CC1 (racemic) [Example 178, 2-(4-(1-(quinoxalin-6-yl)ethyl)piperazin-1-yl)-6,7-dihydrothiazolo[5,4-c]pyridin-4(5H)-one] | –
1 to 10 | CC(=O)Nc1nnc(N2CCN(C(C)c3ccc4ncsc4c3)CC2)s1 (racemic) [Example 179, N-(5-(4-(1-(benzo[d]thiazol-6-yl)ethyl)piperazin-1-yl)-1,3,4-thiadiazol-2-yl)acetamide] | –
0.05 to 0.2 | COc1cnc(N2CCN(C(C)c3ccc4nccnc4c3)CC2)nc1 (racemic) [Example 196] | –

IC50 [1] [µM] | SMILES | also measured
0.05 to 0.2 | COc1nc(N2CCN(C(C)c3ccc4c(c3)OCCO4)CC2)ccc1Br (racemic) [Example 199] | –
0.05 to 0.2 | COc1cccc(N2CCN(C(C)c3ccc4c(c3)OCCO4)CC2)n1 (racemic) [Example 200] | –
1 to 10 | Cc1cnc2cc(C(C)N3CCN(c4ncccn4)CC3)ccc2c1 (racemic) [Example 201, 3-Methyl-7-(1-(4-(pyrimidin-2-yl)piperazin-1-yl)ethyl)quinoline] | –
– | CC(c1ccc2c(c1)OCCO2)N1CCN(c2ncccn2)CC1 (single isomer, unassigned) [Example 34] | OGA inhibitor activity (in words): very potent OGA inhibitors
– | CNC(=O)c1csc(N2CCN(C(C)c3ccc4c(c3)OCO4)CC2)n1 (single isomer, unassigned) [Example 56] | OGA inhibitor activity (in words): very potent OGA inhibitors
– | CC(c1ccc2c(c1)OCO2)N1CCN(c2ncc(C(=O)N(C)C)s2)CC1 (single isomer, unassigned) [Example 61, (R)-2-(4-(1-(benzo[d][1,3]dioxol-5-yl)ethyl)piperazin-1-yl)-N,N-dimethylthiazole-5-carboxamide or (S)-2-(4-(1-(benzo[d][1,3]dioxol-5-yl)ethyl)piperazin-1-yl)-N,N-dimethylthiazole-5-carboxamide] | IC50 [2]: 0.05 to 0.2 µM
– | CC(c1ccc2c(c1)OCCO2)N1CCN(c2ncc(C(=O)N3CCN(C)CC3)s2)CC1 (single isomer, unassigned) [Example 75] | OGA inhibitor activity (in words): very potent OGA inhibitors
– | CC(=O)Nc1cnc(N2CCN(C(C)c3ccc4c(c3)OCO4)CC2)nc1 (single isomer, unassigned) [Example 78] | IC50 [2]: < 0.05 µM
– | CC(c1ccc2cccnc2c1)N1CCN(c2ncccn2)CC1 (single isomer, unassigned) [Example 95, (S)-7-(1-(4-(pyrimidin-2-yl)piperazin-1-yl)ethyl)quinolone or (R)-7-(1-(4-(pyrimidin-2-yl)piperazin-1-yl)ethyl)quinoline] | IC50 [2]: 0.05 to 0.2 µM
< 0.05 | CC(=O)Nc1nnc(N2CCN(C(C)c3ccc4scnc4c3)CC2)s1 (single isomer, unassigned) [Example 133, (S)-N-(5-(4-(1-(benzo[d]thiazol-5-yl)ethyl)piperazin-1-yl)-1,3,4-thiadiazol-2-yl)acetamide or ((R)-N-(5-(4-(1-(benzo[d]thiazol-5-yl)ethyl)piperazin-1-yl)-1,3,4-thiadiazol-2-yl)acetamide] | –
< 0.05 | CC(O)c1cnc(N2CCN([C@@H](C)c3ccc4c(c3)OCO4)CC2)nc1 (single isomer, unassigned) [Example 197] | –
– | CC(c1ccc2c(c1)OCO2)N1CCN(c2ccc([N+](=O)[O-])cn2)CC1 (stereo not shown) [Example 55, 1-(1-(benzo[d][1,3]dioxol-5-yl)ethyl)-4-(5-nitropyridin-2-yl)piperazine] | IC50: 0.05 to 0.2 µM
< 0.05 | C[C@@H](c1ccc2c(c1)OCO2)N1CCN(c2nnc(N)s2)CC1 [Example 132, (S)-5-(4-(1-(benzo[d][1,3]dioxol-5-yl)ethyl)piperazin-1-yl)-1,3,4-thiadiazol-2-amine] | OGA inhibitor activity (in words): very potent OGA inhibitors
< 0.05 | CNC(=O)c1cnc(N2CCN([C@@H](C)c3ccc4c(c3)OCO4)CC2)nc1 [Example 134, (S) 2-(4-(1-(benzo[d][1,3]dioxol-5-yl)ethyl)piperazin-1-yl)-N-methylpyrimidine-5-carboxamide] | OGA inhibitor activity (in words): very potent OGA inhibitors
0.2 to 1 | C[C@@H](c1ccc2c(c1)OCO2)N1CCN(c2nc3ccccc3s2)CC1 [Example 136, (S)-2-(4-(1-(benzo[d][1,3]dioxol-5-yl)ethyl)piperazin-1-yl)benzo[d]thiazole] | –
< 0.05 | C[C@@H](c1ccc2c(c1)OCO2)N1CCN(c2ncc(C(=O)N(C)C)cn2)CC1 [Example 137, (S)-2-(4-(1-(benzo[d][1,3]dioxol-5-yl)ethyl)piperazin-1-yl)-N,N-dimethylpyrimidine-5-carboxamide] | OGA inhibitor activity (in words): very potent OGA inhibitors
1 to 10 | C[C@@H](c1ccc2c(c1)OCO2)N1CCN(c2nc3ccccc3[nH]2)CC1 [Example 138, (S)-2-(4-(1-(benzo[d][1,3]dioxol-5-yl)ethyl)piperazin-1-yl)-1H-benzo[d]imidazole] | –
0.05 to 0.2 | C[C@@H](c1ccc2c(c1)OCO2)N1CCN(c2nc3cnccc3s2)CC1 [Example 139, (S)-2-(4-(1-(benzo[d][1,3]dioxol-5-yl)ethyl)piperazin-1-yl)thiazolo[4,5-c]pyridine] | –
0.05 to 0.2 | CCNc1nnc(N2CCN([C@@H](C)c3ccc4c(c3)OCO4)CC2)s1 [Example 141, (S)-5-(4-(1-(benzo[d][1,3]dioxol-5-yl)ethyl)piperazin-1-yl)-N-ethyl-1,3,4-thiadiazol-2-amine] | –
0.05 to 0.2 | CCCNc1nnc(N2CCN([C@@H](C)c3ccc4c(c3)OCO4)CC2)s1 [Example 142, (S)-5-(4-(1-(benzo[d][1,3]dioxol-5-yl)ethyl)piperazin-1-yl)-N-propyl-1,3,4-thiadiazol-2-amine] | –

From US10336775B2 (Asceneuron SA, priority 2014, dated 2019)
